The text below walks through data of ChEMBL document CHEMBL1201862, “PubChem BioAssay data set” (2004).

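Tested at 5 concentrations; 48 h exposure; 96-well plates; endpoints linearly interpolated, else capped at highest concentration. GI50 is the concentration that inhibits growth by half.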 The source made the active and inactive calls. No stated cut-off is given here; in the data, active = GI50 up to about 1.1 µM and inactive = higher.

Among the test systems are A498; SF-539; NCI-H226; CAKI-1; HCT-15; UACC-257; UO-31; ACHN; EKVX; SK-MEL-28; NCI-H460; HCT-116; OVCAR-3; KM12; K562; SF-268; SK-MEL-2; CCRF-CEM; HT-29; HCC 2998.
Holding throughout (assay): NCI tumour cell line growth inhibition, 48 h

As for `CCOC(=O)c1c(Cl)nc2ccccc2c1N=[N+]=[N-]`, the GI50 with A498 was > 100 µM (inactive); in the assay with SF-539, 18.6 µM (inactive); in the assay on NCI-H226, 32.1 µM (inactive); in the assay with CAKI-1, 20.2 µM (inactive); in the assay with HCT-15, 18.6 µM; in the assay with UACC-257, 21.8 µM (inactive). The GI50 in the assay on UO-31 is 18.7 µM (inactive); in the assay with ACHN, 40.3 µM (inactive); in the assay on EKVX, 22.4 µM (inactive); in the assay with SK-MEL-28 it was 52.4 µM (inactive); in the assay on NCI-H460, 23.7 µM (inactive); in the assay on HCT-116, 20.7 µM (inactive). Further, the GI50 in the assay on OVCAR-3 was 19.5 µM (inactive); in the assay with KM12, 16.2 µM (inactive); in the assay on K562, 69.5 µM (inactive); with SF-268 it was 16.4 µM (inactive); with SK-MEL-2 it was 19.2 µM (inactive); in the assay on CCRF-CEM it was 41 µM (inactive). In addition, the GI50 with HT-29 is 19.6 µM (inactive); with HCC 2998 it was 80.4 µM (inactive).
With `COc1cc(C(=O)CC2OC(=O)C(Cl)=C2Cl)ccc1Cl` (stereo not given), the GI50 is > 100 µM (inactive) with A498; > 100 µM (inactive) in the assay on SF-539; > 100 µM (inactive) in the assay on NCI-H226; > 100 µM (inactive) in the assay with CAKI-1; more than 100 µM with HCT-15; > 100 µM (inactive) in the assay with UACC-257. In addition, the GI50 in the assay with UO-31, in the assay on ACHN, in the assay on EKVX, with SK-MEL-28, in the assay with NCI-H460 and with HCT-116 was > 100 µM (inactive) each time. The GI50 was > 100 µM (inactive) with OVCAR-3; > 100 µM (inactive) in the assay with KM12; > 100 µM (inactive) in the assay with K562; > 100 µM (inactive) in the assay on SF-268; > 100 µM (inactive) in the assay on SK-MEL-2; 69 µM (inactive) with CCRF-CEM. Moreover, the GI50 in the assay on HT-29 and in the assay with HCC 2998 was > 100 µM (inactive) in each case.
